Here are results for 26 molecules from PubChem BioAssay AID262 (DTP/NCI, 2004).

“And” between values parts separate entries of the source, which are not always exact repeats. Equal entries are not always repeated.

The assay concerns LX-1 lung xenograft sc, nude mice, tumor weight. Nature of the assay: NCI In Vivo Anticancer Drug Screen. Data for tumor model Human Lung LX-1 Xenograft (subcutaneous) in NU/NU Swiss (nude) mice. The following applies: endpoint: optimum tumor weight change, higher = larger tumour. The method, then:
The antitumor activity of compounds was measured in mice bearing transplantable tumors. Survival or tumor size were measured and the results are expressed as the measurement made in the treated group (T) divided by the measurement made in the vehicle treated control group (C). The tumor model used in this assay is Human Lung LX-1 Xenograft (subcutaneous) in NU/NU Swiss (nude) mice
In general terms: A xenograft is tissue or cells of one species grown in another, often human tumour cells in immunodeficient mice.

Setting [1] is: dose: 3.13 mg/kg/injection, schedule: Q04DX003 (ip), vehicle: saline.
Where [2] appears, read: dose: 6.25 mg/kg/injection, schedule: Q04DX003 (ip), vehicle: saline.
[3] abbreviates: dose: 10.0 mg/kg/injection, schedule: Q04DX003 (ip), vehicle: Klucel (hydroxypropylcellulose) (HPC).
The mark [4] stands for this setting: dose: 20.0 mg/kg/injection, schedule: Q04DX003 (ip), vehicle: Klucel (hydroxypropylcellulose) (HPC).
[5] abbreviates: dose: 25.0 mg/kg/injection, schedule: Q04DX003 (ip), vehicle: saline.
The mark [6] stands for this setting: dose: 25.0 mg/kg/injection, schedule: Q04DX003 (ip), vehicle: Klucel (hydroxypropylcellulose) (HPC).
The mark [7] stands for this setting: dose: 5.0 mg/kg/injection, schedule: Q04DX003 (ip), vehicle: Klucel (hydroxypropylcellulose) (HPC).
[8] abbreviates: dose: 100.0 mg/kg/injection, schedule: Q04DX003 (ip), vehicle: saline with Tween-80.
Where [9] appears, read: dose: 200.0 mg/kg/injection, schedule: Q04DX003 (ip), vehicle: saline with Tween-80.
Setting [10] is: dose: 200.0 mg/kg/injection, schedule: Q04DX003 (ip), vehicle: Klucel (hydroxypropylcellulose) (HPC).
Where [11] appears, read: dose: 400.0 mg/kg/injection, schedule: Q04DX003 (ip), vehicle: Klucel (hydroxypropylcellulose) (HPC).
Setting [12] is: dose: 4.0 mg/kg/injection, schedule: Q04DX003 (ip), vehicle: saline.
The mark [13] stands for this setting: dose: 8.0 mg/kg/injection, schedule: Q04DX003 (ip), vehicle: saline.
Where [14] appears, read: dose: 50.0 mg/kg/injection, schedule: Q04DX003 (ip), vehicle: Klucel (hydroxypropylcellulose) (HPC).

For the molecule `COc1cc([C@@H]2c3cc4c(c(O)c3C[C@H]3COC(=O)[C@@H]32)OCO4)cc(OC)c1O`, the T/C reads like this: under setting [1], 122 % of control; under setting [2], 55 % of control.
As for `O=NN(CCCl)C(=O)NC1CCCCC1`, the T/C by setting is: under setting [3], 44 % of control; under setting [4], 32 % of control.
`C=C(C)[C@H]1Cc2c(ccc3c2O[C@@H]2COc4cc(OC)c(OC)cc4[C@@H]2C3=O)O1`: the T/C was 106 % of control under setting [1]; 73 % of control under setting [2]; 91 % of control (dose: 12.5 mg/kg/injection, schedule: Q04DX003 (ip), vehicle: saline); 102 % of control under setting [5].
For `CCc1ccccc1N1CCN(C(=O)c2cc(OC)c(OC)c(OC)c2)CC1`, the T/C is 62 % of control and 85 % of control under setting [6]; 60 % of control (dose: 100.0 mg/kg/injection, schedule: Q04DX003 (ip), vehicle: Klucel (hydroxypropylcellulose) (HPC)).
Consider `O=C(NO)c1ccccc1`, for which the T/C (dose: 100.0 mg/kg/injection, schedule: Q04DX003 (ip), vehicle: suspension in saline) is 95 % of control; the T/C (dose: 200.0 mg/kg/injection, schedule: Q04DX003 (ip), vehicle: suspension in saline) is 68 % of control and 84 % of control; the T/C (dose: 400.0 mg/kg/injection, schedule: Q04DX003 (ip), vehicle: suspension in saline) was 55 % of control and 80 % of control; the T/C (dose: 800.0 mg/kg/injection, schedule: Q04DX003 (ip), vehicle: suspension in saline) was 85 % of control.
In the case of `N/C(=N\O)c1cn(C2OC(CO)C(O)C2O)c2ncnc(N)c12` (centres undefined), the T/C runs as follows: under setting [7], 70 % of control; under setting [3], 68 % of control; under setting [4], 62 % of control.
`O=c1[nH]c2c(ccc3cnccc32)c2c1CCC2`: the T/C is 35 % of control (dose: 12.5 mg/kg/injection, schedule: Q04DX003 (ip), vehicle: suspension in saline); 70 % of control (dose: 25.0 mg/kg/injection, schedule: Q04DX003 (ip), vehicle: suspension in saline); 61 % of control (dose: 50.0 mg/kg/injection, schedule: Q04DX003 (ip), vehicle: suspension in saline).
As to `CC(=O)OCC1OC(n2cc(CBr)nn2)C(OC(C)=O)C(OC(C)=O)C1OC(C)=O` (centres undefined), the T/C runs as follows: (dose: 25.0 mg/kg/injection, schedule: Q04DX003 (ip), vehicle: saline with Tween-80) 169 % of control; (dose: 50.0 mg/kg/injection, schedule: Q04DX003 (ip), vehicle: saline with Tween-80) 61 % of control; under setting [8], 107 % of control; under setting [9], 110 % of control.
As to `Nc1ccc(Cl)cc1N`, the T/C under setting [8] is 101 % of control.
`CC[C@]1(O)C[C@H]2CN(CCc3c([nH]c4ccccc34)[C@@](C(=O)OC)(c3cc4c(cc3OC)N(C=O)[C@H]3[C@@](O)(C(=O)OC)[C@H](OC(C)=O)[C@]5(CC)C=CCN6CC[C@]43[C@@H]65)C2)C1`: the T/C (dose: 0.25 mg/kg/injection, schedule: Q04DX003 (ip), vehicle: saline) is 98 % of control and the T/C (dose: 0.5 mg/kg/injection, schedule: Q04DX003 (ip), vehicle: saline) was 79 % of control.
Turning to `CO[C@@]12[C@H](COC(N)=O)C3=C(C(=O)C(C)=C(N)C3=O)N1C[C@@H]1N[C@@H]12`, the T/C runs as follows: (dose: 1.5 mg/kg/injection, schedule: Q04DX003 (ip), vehicle: saline) 98 % of control; (dose: 3.0 mg/kg/injection, schedule: Q04DX003 (ip), vehicle: saline) 40 % of control.
Take `COc1cccc2c1C(=O)c1c(O)c3c(c(O)c1C2=O)C[C@@](O)(C(=O)CO)C[C@@H]3OC1CC(N)C(O)C(C)O1` (some centres undefined): the T/C (dose: 4.0 mg/kg/injection, schedule: Q04DX003 (ip), vehicle: water) is 81 % of control.
As for `CC1CCC(NC(=O)N(CCCl)N=O)CC1` (centres undefined), the T/C under setting [7] was 73 % of control and the T/C under setting [3] is 32 % of control.
Take `O=c1[nH]cnc2n[nH]nc12`: the T/C under setting [10] was 111 % of control; the T/C under setting [11] is 59 % of control; the T/C (dose: 800.0 mg/kg/injection, schedule: Q04DX003 (ip), vehicle: Klucel (hydroxypropylcellulose) (HPC)) was 94 % of control.
Take `NC(=S)N/N=C/c1ccc(O)cn1`: the T/C is, setting by setting: under setting [9], 64 % of control; (dose: 400.0 mg/kg/injection, schedule: Q04DX003 (ip), vehicle: saline with Tween-80) 76 % of control.
Turning to `OCC1OC(n2cnc3cncnc32)C(O)C1O` (centres undefined), the T/C under setting [5] was 83 % of control.
As to `[N-]=[N+]=CC(=O)CCC(N)C(=O)O` (centres undefined), where the note is “dose: 37.5 mg/kg/injection, schedule: Q04DX003 (ip), vehicle: saline”, the T/C is -87 % of control.
As for `Cc1c(N)nc(C(CC(N)=O)NCC(N)C(N)=O)nc1C(=O)NC(C(=O)NC(C)C(O)CC(=O)NC(C(=O)NC(OC1OC(C)C(N)C(O)C1O)C(O)c1nc(-c2nc(C(=O)NCCCC(N)CC(=O)NCCCNCCCCN)cs2)cs1)C(C)O)C(OC1OC(CO)C(O)C(O)C1OC1OC(CO)C(O)C(OC(N)=O)C1O)c1cnc[nH]1` (centres undefined), the T/C reads like this: under setting [12], 52 % of control; under setting [13], 23 % of control.
For the molecule `CN1N=C(N)c2cn(C3OC(COP(=O)(O)O)C(O)C3O)c3ncnc1c23` (centres undefined), the T/C (dose: 50.0 mg/kg/injection, schedule: Q04DX003 (ip), vehicle: water) is 86 % of control.
Consider `CN(N=O)C(=O)N[C@@H](C=O)[C@@H](O)[C@H](O)[C@H](O)CO`, for which the T/C by setting is: (dose: 100.0 mg/kg/injection, schedule: Q04DX003 (ip), vehicle: saline) 150 % of control; (dose: 200.0 mg/kg/injection, schedule: Q04DX003 (ip), vehicle: saline) 64 % of control.
For the molecule `CC(=O)OCC(=O)[C@@]12OC(C)(C)O[C@@H]1C[C@H]1[C@@H]3CC(C=O)=C4C=C(OCCCl)CC[C@]4(C)[C@@]3(F)[C@@H](O)C[C@@]12C`, the T/C is 96 % of control under setting [6] and 106 % of control under setting [14].
On to `CC[C@](O)(C(=O)O)c1cc2n(c(=O)c1CO)Cc1cc3ccccc3nc1-2`, for which the T/C was 40 % of control (dose: 1.0 mg/kg/injection, schedule: Q04DX003 (ip), vehicle: saline); 26 % of control and 40 % of control under setting [12]; 32 % of control and 35 % of control under setting [13]; 29 % of control (dose: 16.0 mg/kg/injection, schedule: Q04DX003 (ip), vehicle: saline).
With `CN(C)c1nc(N(C)C)nc(N(C)C)n1`, the T/C is, setting by setting: (dose: 60.0 mg/kg/injection, schedule: Q01DX005 (ip), vehicle: Klucel (hydroxypropylcellulose) (HPC)) 71 % of control; (dose: 60.0 mg/kg/injection, schedule: Q07DX005 (ip), vehicle: Klucel (hydroxypropylcellulose) (HPC)) 188 % of control; (dose: 120.0 mg/kg/injection, schedule: Q01DX005 (ip), vehicle: Klucel (hydroxypropylcellulose) (HPC)) 85 % of control; (dose: 120.0 mg/kg/injection, schedule: Q07DX005 (ip), vehicle: Klucel (hydroxypropylcellulose) (HPC)) 78 % of control.
As for `COc1cccc2c1C(=O)c1c(O)c3c(c(O)c1C2=O)C[C@@](O)(C(=O)CO)C[C@@H]3OC1CC(N)C(OC)C(C)O1` (some centres undefined), the T/C by setting is: (dose: 0.4 mg/kg/injection, schedule: Q04DX003 (ip), vehicle: saline) 84 % of control; (dose: 0.79 mg/kg/injection, schedule: Q04DX003 (ip), vehicle: saline) 106 % of control; (dose: 1.57 mg/kg/injection, schedule: Q04DX003 (ip), vehicle: saline) 40 % of control.
As for `CN(C)N=Nc1cn[nH]c1C(N)=O`, the T/C under setting [14] is 2 % of control, the T/C under setting [10] was 53 % of control and the T/C under setting [11] was -43 % of control.
As for `COC1C(C)OC(OC2CC(C)(O)Cc3cc4c(c(O)c32)C(=O)c2c(O)cc3c(c2C4=O)OC2OC3(C)C(O)C(N(C)C)C2O)C(OC)C1(C)OC` (centres undefined), the T/C was 69 % of control (dose: 2.5 mg/kg/injection, schedule: Q04DX003 (ip), vehicle: Klucel (hydroxypropylcellulose) (HPC)); 75 % of control under setting [7]; 56 % of control under setting [3]; 38 % of control under setting [4].
